In patent publication US4645760A, “Activated aminoglycosides and aminoglycoside-aminocyclitols pharmaceutical compositions and method of use” (priority 1983, dated 1987):
Structures can show the parent of a compound that is named as a salt.

Experiments:
epinephrine autoxidation = epinephrine autoxidation inhibition assay (oxygen radical reactivity); assay type: biochemical; settings: for IC50: 25° C., 0.1M sodium carbonate, pH 10.2, A320, sulfate form, read-out: (A) Molarity for 50% inhibition of epinephrine autoxidation; for relative molar ratio for 50% inhibition: KM:SM:NM:GM; for B/A Molar ratio (epinephrine molarity / molarity for 50% inhibition): pH 10.2, 25° C.
Description: The oxygen radical reactivity of 4-aminoglycosides KM, streptomycin (SM), neomycin (NM), and gentamicin (GM) was tested using a previously described modification of the commonly used epinephrine autoxidation assay. […] Further studies are required to determine the identification of the reacting active oxygen species (e.g. singlet oxygen, hydroperoxy radicals, superoxide radicals, hydroxyl radicals, or others).
Reactions were performed at 25° C.; in 0.1M sodium carbonate, pH 10.2. Absorbance at 320 nm (A320) as measured with a Varian model 219 spectrophotometer. Antibiotics (Sigma) were used in the sulfate form; the working molecular weight reflects the anhydrous weight of the base. At least five aminoglycoside concentrations, each replicated four times, were used to estimate the 50% epinephrine autoxidation inhibition value. Epinephrine concentrations yielding between 0.23 and 0.27 ΔA320 per minute was the basis for calculating the percent of inhibition. The data were analyzed by linear regression; standard deviations are shown.
When the unactivated aminoglycoside-aminocyclitol compounds are added at pH=10.2 to a cuvette containing epinephrine and 0.1 molar carbonate buffer, the aminoglycosides block the autoxidation of epinephrine to adrenochrome on approximately a mole-to-mole basis. This blockade is monitored spectrophotometrically at 320 nm and is a linear function of drug concentration. Using 9×10^-4 molar epinephrine, the linear region extends from 10^-5 to 10^-3 molar aminoglycoside. The sensitivity of this assay can be extended by lowering the starting epinephrine concentration.

superoxide free radicals = assay: block of nitro-blue tetrazolium (NBT) reduction by superoxide; assay type: biochemical; settings: photoreduced riboflavin or xanthine-xanthine oxidase; 560 nm; unactivated aminoglycosides
From the text: (§1) The auto-oxidation of epinephrine is blocked on a mole-to-mole basis by aminoglycosides and aminoglycoside-aminocyclitols. […] Other colorimetric or chemiluminescence assays for superoxide or hydroxyl radicals which use dyes or other reagents that can develop color selectively in the presence of these radicals can also form the basis of rapid photometric assays for parent aminoglycoside and aminoglycoside-aminocyclitol levels in biological or other aqueous solutions. The degree to which colored products are blocked by the aminoglycoside or the aminoglycoside-aminocyclitol compound would be directly proportional to the concentration of aminoglycosides and aminoglycoside-aminocyclitol compounds. Representative dyes and reactants include the following non-limitative list:
This is spectrophotometrically monitored at 560 nm, where the maximum absorbance of reduced NBT occurs. This procedure decreases in sensitivity at pH's higher than 7.0 and at very high (millimolar) drug concentrations. The reason for these limits is that superoxide reacts with aminoglycosides to generate a reducing compound which can interfere with the assay by directly reducing NBT.

B. subtilis = assay: antibiotic disc diffusion after riboflavin/methionine/UV activation; assay type: cell-based; settings: for potency enhancement of mixture of activated compound and parent compound: 2.8×10^-5 M riboflavin, 0.01M methionine, half hour uv light; for potency after coincubation with irradiated riboflavin vs riboflavin-free parent solution: Example 5, methionine, 365 nm, half hour
Description: The parent compounds in the above table were subjected to two synthetic activation processes according to the present invention. As set forth below, the parent compound was incubated with 2.8×10^-5 M riboflavin and 0.01M methionine (a hydrogen donor) for a half hour in the presence of a uv light.
A solution of […] riboflavin, and a hydrogen donor such as 0.01M methionine, was irradiated with ultraviolet light at 365 nm for a half hour to produce oxygen-free radicals.

E. Coli (ATC 25922) = assay: disc inhibition zone, E. Coli (Table 1); assay type: cell-based; settings: for zone of inhibition at 40 µg/disc: Escherichia coli, read-out: mm inhibition zone due to 40 μgm/disc, organism - E. Coli; for mm inhibition zone, E. Coli per log concentration antibiotic: slope, 2000 and 200 ppm
Description: (§2) ^1 9 ml antibiotic #5 agar (Difco), was poured warm into 15 ×
(§3) 100 mm Plastic petri dishes and seeded with test bacteria to a density of
(§4) 2 × 10^6 bacteria per ml (except B. subtilis which was seeded a
(§5) in item 2 below). Q uarter inch sterile filter discs were placed on the
(§6) agars and loaded with 20 microliters of test solutions at concentrations
(§7) of 2000 and 200 ppm. The antibiotic amounts therefore were 40
(§8) micrograms/disc or 4 micrograms/disc. Slopes were based on duplicate
(§9) tests of each substance at these two concentrations. All substances, each
(§10) at two concentrations were tested on each plate. Data were averaged.
(§11) ^3 Concentration of compound 4 MM 0500a1 was adjusted to represent th
(§12) total organic content. That is, 2000 ppm means 2000 parts organic materia
(§13) per million parts water.

[1] = tested on: Pseudomonas aeruginosa (ATCC 22853); assay: disc inhibition zone, Pseudomonas aeruginosa (Table 1); assay type: cell-based; settings: ATCC22853, read-out: mm inhibition zone due to 40 μgm/disc, organism - Pseudomonas aeruginosa
Description: as §2, §3, §4, §5, §6, §7, §8, §9, §10, §11, §12, §13

Bacillus subtilis = assay: disc inhibition zone, Bacillus subtilis (Table 1); assay type: cell-based; settings: for zone of inhibition at 40 µg/disc: Bacillus subtilis, 40 μgm/disc, 30 degrees, 18 hours, read-out: mm inhibition zone due to 40 μgm/disc, organism - Bacillus subtilis; for mm inhibition zone, B. subtilis per log concentration antibiotic: slope by regression
Description: ^2 9 ml antibiotic #5 media (Difco), seeded to a concentration of 0.2
microliters of B. subtilis spores/500 ml agar, was dispensed into 15
× 100 ml plastic petri dishes. One quarter inch Schleicher and
Schuell sterile filter discs were placed on the agar and loaded with 20
microliters of dilutions of test compound including dilutions of 2000 ppm
600 ppm, 200 ppm, 60 ppm, and 20 ppm. The plates were incubated overnight
at 30 degrees centigrade, the inhibition zones measured at 18 hours. All
values were based on 6 tests at a given concentration; each plate was
corrected to an average kill zone due to 20 microliters of neomycin B bas
at a concentration of 30 ppm. Slopes and kill zones for 40 microgramloade
discs were obtained usi ng regression analysis.
as §11, §12, §13

[2] = assay type: physicochemical
S. aureus (ATCC 25923) = assay: disc inhibition zone, S. aureus (Table 1); assay type: cell-based; settings: for zone of inhibition at 40 µg/disc: Staphylococcus aureus, ATCC25923, read-out: mm inhibition zone due to 40 μgm/disc, Staphylococcus aureus (printed "coccus aureus"); for mm inhibition zone, S. aureus per log concentration antibiotic: slope, 2000 and 200 ppm
Description: as §2, §3, §4, §5, §6, §7, §8, §9, §10, §11, §12, §13

[3] = tested on: Pseudomonas maltophilispp.; assay: disc inhibition zone, Pseudomonas maltophilia (Table 1); assay type: cell-based; settings: read-out: mm inhibition zone due to 40 μgm/disc, organism - Pseudomonas maltophilispp.
Description: as §2, §3, §4, §5, §6, §7, §8, §9, §10, §11, §12, §13

hydroxyl free radicals = assay: hydroxyl free radical spin-adduct formation by Electron Paramagnetic Resonance; assay type: biochemical; settings: spin traps ntb or DMPO; xanthine/xanthine oxidase, pH 7.8; millimolar drug
From the text: as §1
Two spin traps were examined with the same conclusion, nitrosotertiary-butyl (ntb) and 5,5-dimethyl-1-pyrroline-1-oxide. The reaction mixture used to produce hydroxyl radical included 10^-4 M xanthine, 6×10^-8 M xanthine oxidase, 10^-3 EDTA, 10^-4 M spin trap (DMPO or ntb), 8.9×10^-5 M H2 O2, 0.1M potassium phosphate buffer; final pH--7.8. The free radical signals were directly monitored with and without the antibiotics by using the techniques of Electron Paramagnetic Resonance starting 2 minutes after reaction initiation. The scan range=100 Gauss; time constant=0.064 sec; modulation amplitude=1 Gauss; Microwave power=1 Mw; Microwave frequency=9.418 GHz; Field set=3350 Gauss; scan time=20 seconds; modulation frequency=100 KHz. AH =AN =14.9 G.

[4] = tested on: bacteria (E. coli, Pseudomona aeruginosa); assay: bacterial killing by aminoglycosides (gentamicin, kanamycin) with coincubated enzyme; assay type: cell-based; settings: coincubation, extracellular enzyme

## NC[C@H]1O[C@H](O[C@H]2[C@H](O)[C@@H](O[C@H]3O[C@H](CO)[C@@H](O)[C@H](N)[C@H]3O)[C@H](N)C[C@@H]2N)[C@H](O)[C@@H](O)[C@@H]1O [KM, kanamycin]
Epinephrine autoxidation
  IC50: 0.7 ± 0.1 mM
  relative molar ratio for 50% inhibition: ~ 6
  B/A Molar ratio (epinephrine molarity / molarity for 50% inhibition): 1.11
Epinephrine autoxidation; fourfold molar excess of KM
  epinephrine autoxidation blocked: 97%
Superoxide free radicals
  NBT reduction rate / blockade: the rate of NBT reduction is slowed proportionally to the concentration of aminoglycoside
B. subtilis
  potency enhancement of mixture of activated compound and parent compound: 25%
  potency after coincubation with irradiated riboflavin vs riboflavin-free parent solution: enhanced potency

## NC[C@@H]1O[C@H](O[C@H]2[C@@H](O)[C@H](O[C@@H]3[C@@H](O)[C@H](N)C[C@H](N)[C@H]3O[C@H]3O[C@H](CN)[C@@H](O)[C@H](O)[C@H]3N)O[C@@H]2CO)[C@H](N)[C@@H](O)[C@@H]1O [NM, neomycin]
Epinephrine autoxidation
  IC50: 2.1 ± 0.14 mM
  relative molar ratio for 50% inhibition: ~2
  B/A Molar ratio (epinephrine molarity / molarity for 50% inhibition): 0.39
B. subtilis
  potency enhancement of mixture of activated compound and parent compound: 100%
  potency after coincubation with irradiated riboflavin vs riboflavin-free parent solution: enhanced potency

## NC[C@@H]1O[C@H](O[C@H]2[C@@H](O)[C@H](O[C@@H]3[C@@H](O)[C@H](N)C[C@H](N)[C@H]3O[C@H]3O[C@H](CN)[C@@H](O)[C@H](O)[C@H]3N)O[C@@H]2CO)[C@H](N)[C@@H](O)[C@@H]1O [NMb, Neomycin B base]
Superoxide free radicals
  NBT reduction rate / blockade: the rate of NBT reduction is slowed proportionally to the concentration of aminoglycoside
E. Coli (ATC 25922)
  zone of inhibition at 40 µg/disc: 14.9 mm
  mm inhibition zone, E. Coli per log concentration antibiotic: 5.5 mm per log concentration
[1]
  zone of inhibition at 40 µg/disc: 10.7 mm
Bacillus subtilis
  zone of inhibition at 40 µg/disc: 23.3 mm
  mm inhibition zone, B. subtilis per log concentration antibiotic: 5.6 mm per log concentration
[2]
  solubility in DMSO: DMSO- insoluble
S. aureus (ATCC 25923)
  zone of inhibition at 40 µg/disc: 17.2 mm
  mm inhibition zone, S. aureus per log concentration antibiotic: 6.1 mm per log concentration
[3]
  zone of inhibition at 40 µg/disc: 8.3 mm

## NC[C@H]1O[C@H](O[C@H]2[C@H](O)[C@@H](O)[C@H](N)C[C@@H]2N)[C@H](N)[C@@H](O)[C@@H]1O [Neomycin A base (neamine), Neomycin A base]
E. Coli (ATC 25922)
  zone of inhibition at 40 µg/disc: 24.7 mm
  mm inhibition zone, E. Coli per log concentration antibiotic: 7.8 mm per log concentration
[1]
  zone of inhibition at 40 µg/disc: 0 mm
Bacillus subtilis
  zone of inhibition at 40 µg/disc: 33.8 mm
  mm inhibition zone, B. subtilis per log concentration antibiotic: 7.0 mm per log concentration
S. aureus (ATCC 25923)
  zone of inhibition at 40 µg/disc: 29.8 mm
  mm inhibition zone, S. aureus per log concentration antibiotic: 9.4 mm per log concentration
[3]
  zone of inhibition at 40 µg/disc: 0 mm

## [H]/N=C(/N)N[C@H]1[C@H](O)[C@@H](O)[C@H](O[C@@H]2O[C@@H](C)[C@](O)(C=O)[C@H]2O[C@@H]2O[C@@H](CO)[C@H](O)[C@@H](O)[C@@H]2NC)[C@@H](N/C(N)=N\[H])[C@@H]1O [SM, streptomycin]
Epinephrine autoxidation
  IC50: 0.74 ± 0.1 mM
  relative molar ratio for 50% inhibition: ~ 6
  B/A Molar ratio (epinephrine molarity / molarity for 50% inhibition): 1.08
B. subtilis
  potency enhancement of mixture of activated compound and parent compound: 18%
  potency after coincubation with irradiated riboflavin vs riboflavin-free parent solution: enhanced potency

## NC[C@H]1O[C@H](O[C@H]2[C@H](O)[C@@H](O[C@H]3O[C@H](CO)[C@@H](O)[C@H](N)[C@H]3O)[C@H](N)C[C@@H]2N)[C@H](O)[C@@H](O)[C@@H]1O [kanamycin sulfate]
Hydroxyl free radicals
  hydroxyl free radical spin-adduct formation: prevented in a concentration-dependent manner

## NC[C@@H]1O[C@H](O[C@H]2[C@@H](O)[C@H](O[C@@H]3[C@@H](O)[C@H](N)C[C@H](N)[C@H]3O[C@H]3O[C@H](CN)[C@@H](O)[C@H](O)[C@H]3N)O[C@@H]2CO)[C@H](N)[C@@H](O)[C@@H]1O [neoomycin B sulfate, neomycin B sulfate]
Hydroxyl free radicals
  hydroxyl free radical spin-adduct formation: prevented in a concentration-dependent manner

## [H]/N=C(/N)N[C@H]1[C@H](O)[C@@H](O)[C@H](O[C@@H]2O[C@@H](C)[C@](O)(C=O)[C@H]2O[C@@H]2O[C@@H](CO)[C@H](O)[C@@H](O)[C@@H]2NC)[C@@H](N/C(N)=N\[H])[C@@H]1O [streptomycin sulfate]
Hydroxyl free radicals
  hydroxyl free radical spin-adduct formation: prevented in a concentration-dependent manner

## Catalase
[4]
  effect on bacterial killing by aminoglycosides (gentamicin, kanamycin): Catalase blockade occurs alone

## gentamicin [GM]
Epinephrine autoxidation
  IC50: 4.4 ± 0.46 mM
  relative molar ratio for 50% inhibition: ~1
  B/A Molar ratio (epinephrine molarity / molarity for 50% inhibition): 0.19
Superoxide free radicals
  NBT reduction rate / blockade: the rate of NBT reduction is slowed proportionally to the concentration of aminoglycoside
B. subtilis
  potency enhancement of mixture of activated compound and parent compound: 167%
  potency after coincubation with irradiated riboflavin vs riboflavin-free parent solution: enhanced potency
